Measurements from patent US20260216196A1, “IMIDAZO[1,2-A]PYRIDINE AND IMIDAZO[1,2-A]PYRAZINE DERIVATIVES AS MLLT1 AND MLLT3 INHIBITORS” (DARK BLUE THERAPEUTICS LTD., priority 2022, published 2026).
Structures can show the parent of a compound that is named as a salt.

Tests used:
MLLT3 = MLLT3 (Homo sapiens, UniProt P42568); assay: HTRF IC50 determination assay, MLLT3 / H3K9cro peptide displacement; conditions: MLLT3 assay IC50 (nM), 6His tagged MLLT3, biotinylated H3K9cro peptide, compound 20 μM to 20 nM, 11 data points in duplicate
MLLT1 = MLLT1 (Homo sapiens, UniProt Q03111); assay: biochemical; conditions: MLLT1 assay IC50 (nM), HTRF, 6His tagged MLLT1, biotinylated H3K9cro peptide; compound 20 μM to 20 nM, 11 data points in duplicate
MLLT1, sequence (Q03111 whole entry): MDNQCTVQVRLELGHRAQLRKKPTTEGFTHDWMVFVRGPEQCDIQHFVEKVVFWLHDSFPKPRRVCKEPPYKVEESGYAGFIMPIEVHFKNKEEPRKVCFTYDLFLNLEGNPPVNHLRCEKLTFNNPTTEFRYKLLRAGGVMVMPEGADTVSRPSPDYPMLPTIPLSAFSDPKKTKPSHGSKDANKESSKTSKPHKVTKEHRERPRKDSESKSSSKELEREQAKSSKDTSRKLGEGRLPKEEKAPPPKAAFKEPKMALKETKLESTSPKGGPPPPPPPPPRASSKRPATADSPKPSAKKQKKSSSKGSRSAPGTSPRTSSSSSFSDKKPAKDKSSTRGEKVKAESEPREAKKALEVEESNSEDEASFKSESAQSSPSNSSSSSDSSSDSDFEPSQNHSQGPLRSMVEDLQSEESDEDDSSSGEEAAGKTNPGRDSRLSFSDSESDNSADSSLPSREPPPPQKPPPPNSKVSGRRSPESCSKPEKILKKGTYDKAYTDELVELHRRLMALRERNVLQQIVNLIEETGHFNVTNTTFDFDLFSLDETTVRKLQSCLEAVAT

MLLT3, sequence (P42568 whole entry): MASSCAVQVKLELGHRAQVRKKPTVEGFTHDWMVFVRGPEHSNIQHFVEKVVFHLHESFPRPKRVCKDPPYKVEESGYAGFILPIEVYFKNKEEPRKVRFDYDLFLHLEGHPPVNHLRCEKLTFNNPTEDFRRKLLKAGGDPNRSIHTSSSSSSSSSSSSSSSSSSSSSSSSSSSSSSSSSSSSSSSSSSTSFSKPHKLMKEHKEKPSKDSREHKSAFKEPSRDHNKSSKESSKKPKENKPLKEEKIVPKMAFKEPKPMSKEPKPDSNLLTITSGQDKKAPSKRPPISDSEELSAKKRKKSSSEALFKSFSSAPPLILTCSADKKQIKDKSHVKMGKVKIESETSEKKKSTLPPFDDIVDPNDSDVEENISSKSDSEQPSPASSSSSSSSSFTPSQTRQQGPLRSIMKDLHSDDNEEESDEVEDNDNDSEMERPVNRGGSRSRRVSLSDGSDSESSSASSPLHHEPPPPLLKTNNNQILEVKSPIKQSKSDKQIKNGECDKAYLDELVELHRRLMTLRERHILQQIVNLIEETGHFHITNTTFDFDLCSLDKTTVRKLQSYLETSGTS

## CN1CC2(CC2)C[C@@H]1c1cn2cc(NC(=O)c3ccc4c(cnn4C)c3)ncc2n1 [Example 102, 1-methyl-N-[2-[(6R)-5-methyl-5-azaspiro[2.4]heptan-6-yl]imidazo[1,2-a]pyrazin-6-yl]indazole-5-carboxamide]
MLLT3
  IC50: 150 to 1500 nM
MLLT1
  IC50: < 150 nM

## Cc1c(C(=O)Nc2ccc3nc(C4CCCN4C)cn3c2)sc2nc[nH]c(=O)c12 (racemic) [Example 44, rac-5-methyl-N-[2-(1-methylpyrrolidin-2-yl)imidazo[1,2-a]pyridin-6-yl]-4-oxo-3H,4H-thieno[2,3-d]pyrimidine-6-carboxamide]
MLLT3
  IC50: 1500 to 20000 nM
MLLT1
  IC50: 1500 to 20000 nM

## CN1CCCC1c1cn2cc(NC(=O)c3cnc4cc(Cl)ccc4c3)ccc2n1 (racemic) [Example 9, rac-7-chloro-N-[2-(1-methylpyrrolidin-2-yl)imidazo[1,2-a]pyridin-6-yl]quinoline-3-carboxamide]
MLLT3
  IC50: 1500 to 20000 nM
MLLT1
  IC50: 1500 to 20000 nM

## CN1CCCC1c1cn2cc(NC(=O)c3ccc4ncccc4n3)ccc2n1 (racemic) [Example 10, rac-N-[2-(1-methylpyrrolidin-2-yl)imidazo[1,2-a]pyridin-6-yl]-1,5-naphthyridine-2-carboxamide]
MLLT3
  IC50: > 20000 nM
MLLT1
  IC50: 1500 to 20000 nM

## CN1CCCC1c1cn2cc(NC(=O)c3ccc4c(cnn4C)c3)ccc2n1 (single isomer, unassigned) [Example 60]
MLLT3
  IC50: 150 to 1500 nM
MLLT1
  IC50: < 150 nM

## CCN1CCCC1c1cn2cc(NC(=O)c3ccc4c(C)nn(C)c4c3)ncc2n1 (single isomer, unassigned) [Example 88, N-{2-[(rel-2S)-1-ethylpyrrolidin-2-yl]imidazo[1,2-a]pyrazin-6-yl}-1,3-dimethylindazole-6-carboxamide]
MLLT3
  IC50: 1500 to 20000 nM
MLLT1
  IC50: 1500 to 20000 nM

## CN1CCCC1c1cn2cc(NC(=O)c3cc(-c4cnccn4)ccc3F)ccc2n1 (single isomer, unassigned) [Example 24]
MLLT3
  IC50: 1500 to 20000 nM
MLLT1
  IC50: 150 to 1500 nM

## Cc1nn(C)c2cc(C(=O)Nc3cn4cc(C5CCCN5C)nc4cc3F)ccc12 (racemic) [Example 57, rac-N-[7-fluoro-2-(1-methylpyrrolidin-2-yl)imidazo[1,2-a]pyridin-6-yl]-1,3-dimethyl-1H-indazole-6-carboxamide]
MLLT3
  IC50: 1500 to 20000 nM
MLLT1
  IC50: 150 to 1500 nM

## COCCN1CCCC1c1cn2cc(NC(=O)c3ccc4c(C)nn(C)c4c3)ccc2n1 (racemic) [Example 62, rac-N-{2-[1-(2-methoxyethyl)pyrrolidin-2-yl]imidazo[1,2-a]pyridin-6-yl}-1,3-dimethyl-1H-indazole-6-carboxamide]
MLLT3
  IC50: 1500 to 20000 nM
MLLT1
  IC50: 1500 to 20000 nM

## CN1CCCC1c1cn2cc(NC(=O)c3ccc(-c4cncs4)cc3F)ccc2n1 (single isomer, unassigned) [Example 7]
MLLT3
  IC50: 1500 to 20000 nM
MLLT1
  IC50: 1500 to 20000 nM

## CN1CCCC1c1cn2cc(NC(=O)c3ccc4c(c3)c(C3CCNC3)nn4C)ccc2n1 (racemic) [Example 56, rac-1-methyl-N-(2-(1-methylpyrrolidin-2-yl)imidazo[1,2-a]pyridin-6-yl)-3-(pyrrolidin-3-yl)-1H-indazole-5-carboxamide formate]
MLLT3
  IC50: 150 to 1500 nM
MLLT1
  IC50: 150 to 1500 nM

## Cc1nn(C)c2cc(C(=O)Nc3cn4cc(C5CC(C(C)(C)C)CN5C)nc4cn3)ccc12 (racemic) [Example 84, rac-N-[2-(4-tert-butyl-1-methylpyrrolidin-2-yl)imidazo[1,2-a]pyrazin-6-yl]-1,3-dimethylindazole-6-carboxamide]
MLLT3
  IC50: 150 to 1500 nM
MLLT1
  IC50: < 150 nM

## CN1CCCC1c1cn2cc(NC(=O)c3ccc4c(c3)c(C3CCCC3)nn4C)ccc2n1 (racemic) [Example 48, rac-3-cyclopentyl-1-methyl-N-[2-(1-methylpyrrolidin-2-yl)imidazo[1,2-a]pyridin-6-yl]-1H-indazole-5-carboxamide]
MLLT3
  IC50: 150 to 1500 nM
MLLT1
  IC50: 150 to 1500 nM

## CN1CCCCC1c1cn2cc(NC(=O)c3ccc4c(cnn4C)c3)ccc2n1 (single isomer, unassigned) [Example 27]
MLLT3
  IC50: > 20000 nM
MLLT1
  IC50: 1500 to 20000 nM

## Cc1nn(C)c2cc(C(=O)Nc3cn4cc([C@H]5CCCN5C)nc4cn3)ccc12 [Example 70, 1,3-dimethyl-N-{2-[(2R)-1-methylpyrrolidin-2-yl]imidazo[1,2-a]pyrazin-6-yl}-1H-indazole-6-carboxamide]
MLLT3
  IC50: 150 to 1500 nM
MLLT1
  IC50: 150 to 1500 nM

## CN1CCCC1c1cn2cc(NC(=O)c3ccc4[nH]ccc4c3F)ccc2n1 (racemic) [Example 53, rac-4-fluoro-N-[2-(1-methylpyrrolidin-2-yl)imidazo[1,2-a]pyridin-6-yl]-1H-indole-5-carboxamide]
MLLT3
  IC50: 150 to 1500 nM
MLLT1
  IC50: 150 to 1500 nM

## CN1CCCC1c1cn2cc(NC(=O)c3ccc(Cn4cccn4)cc3)ccc2n1 (racemic) [Example 42, rac-N-[2-(1-methylpyrrolidin-2-yl)imidazo[1,2-a]pyridin-6-yl]-4-[(1H-pyrazol-1-yl)methyl]benzamide]
MLLT3
  IC50: 1500 to 20000 nM
MLLT1
  IC50: 150 to 1500 nM

## CCN1CCCC1c1cn2cc(NC(=O)c3ccc4c(C)nn(C)c4c3)ncc2n1 (single isomer, unassigned) [Example 87, N-{2-[(rel-2R)-1-ethylpyrrolidin-2-yl]imidazo[1,2-a]pyrazin-6-yl}-1,3-dimethylindazole-6-carboxamide]
MLLT3
  IC50: 150 to 1500 nM
MLLT1
  IC50: 150 to 1500 nM

## CC1CCC(c2cn3cc(NC(=O)c4ccc5c(cnn5C)c4)ccc3n2)N1C (racemic) [Example 63, rac-N-[2-(1,5-dimethylpyrrolidin-2-yl)imidazo[1,2-a]pyridin-6-yl]-1-methyl-1H-indazole-5-carboxamide]
MLLT3
  IC50: 1500 to 20000 nM
MLLT1
  IC50: 1500 to 20000 nM

## CCc1nn(C)c2cc(C(=O)Nc3cn4cc([C@H]5CCCN5C)nc4cn3)ccc12 [Example 72, 3-ethyl-1-methyl-N-{2-[(2R)-1-methylpyrrolidin-2-yl]imidazo[1,2-a]pyrazin-6-yl}-1H-indazole-6-carboxamide]
MLLT3
  IC50: 150 to 1500 nM
MLLT1
  IC50: 150 to 1500 nM

## CN1CCCC1c1cn2cc(NC(=O)c3cnc(-c4ccccc4)o3)ccc2n1 (racemic) [Example 46, rac-N-[2-(1-methylpyrrolidin-2-yl)imidazo[1,2-a]pyridin-6-yl]-2-phenyl-1,3-oxazole-5-carboxamide]
MLLT3
  IC50: 1500 to 20000 nM
MLLT1
  IC50: 1500 to 20000 nM

## Cc1ncc(-c2ccc(F)c(C(=O)Nc3ccc4nc(C5CCCN5C)cn4c3)c2)s1 (single isomer, unassigned) [Example 23]
MLLT3
  IC50: 150 to 1500 nM
MLLT1
  IC50: 150 to 1500 nM

## CN1CCC[C@@H]1c1cn2cc(NC(=O)c3cc4cnn(C)c4cn3)ncc2n1 [Example 95, 1-methyl-N-{2-[(2R)-1-methylpyrrolidin-2-yl]imidazo[1,2-a]pyrazin-6-yl}pyrazolo[3,4-c]pyridine-5-carboxamide]
MLLT3
  IC50: 1500 to 20000 nM
MLLT1
  IC50: 1500 to 20000 nM

## Cc1nn(C)c2nc(C(=O)Nc3ccc4nc(C5CCCN5C)cn4c3)ccc12 (racemic) [Example 31, rac-1,3-dimethyl-N-[2-(1-methylpyrrolidin-2-yl)imidazo[1,2-a]pyridin-6-yl]-1H-pyrazolo[3,4-b]pyridine-6-carboxamide]
MLLT3
  IC50: 1500 to 20000 nM
MLLT1
  IC50: 1500 to 20000 nM

## COc1cc(NC(=O)c2ccc3c(C)nn(C)c3c2)cn2cc(C3CCCN3C)nc12 (racemic) [Example 1, rac-N-[8-methoxy-2-(1-methylpyrrolidin-2-yl)imidazo[1,2-a]pyridin-6-yl]-1,3-dimethyl-indazole-6-carboxamide]
MLLT3
  IC50: 150 to 1500 nM
MLLT1
  IC50: 150 to 1500 nM

## CN1CCCC1(C)c1cn2cc(NC(=O)c3ccc4c(cnn4C)c3)ccc2n1 (racemic) [Example 4, rac-N-[2-(1,2-dimethylpyrrolidin-2-yl)imidazo[1,2-a]pyridin-6-yl]-1-methylindazole-5-carboxamide]
MLLT3
  IC50: 1500 to 20000 nM
MLLT1
  IC50: 150 to 1500 nM

## Cc1nn(C)c2cc(C(=O)Nc3cn4cc(C5CC(C)(C)CN5C)nc4cn3)ccc12 (single isomer, unassigned) [Example 82]
MLLT3
  IC50: < 150 nM
MLLT1
  IC50: < 150 nM

## CN1C2CCCCC2C[C@@H]1c1cn2cc(NC(=O)c3ccc4c(cnn4C)c3)ccc2n1 (stereo partly drawn) [Example 58, 1-methyl-N-{2-[(2R)-1-methyl-octahydro-1H-indol-2-yl]imidazo[1,2-a]pyridin-6-yl}-1H-indazole-5-carboxamide]
MLLT3
  IC50: 150 to 1500 nM
MLLT1
  IC50: 150 to 1500 nM

## Cc1nc(NC(=O)c2cc3c(C)nc(C)n3cc2F)cn2cc([C@H]3CCCN3C)nc12 [Example 94, 6-fluoro-1,3-dimethyl-N-{8-methyl-2-[(2R)-1-methylpyrrolidin-2-yl]imidazo[1,2-a]pyrazin-6-yl}imidazo[1,5-a]pyridine-7-carboxamide]
MLLT3
  IC50: 150 to 1500 nM
MLLT1
  IC50: 150 to 1500 nM

## CN1CCCC1c1cn2cc(NC(=O)c3cc4ccncc4cc3F)ccc2n1 (single isomer, unassigned) [Example 26]
MLLT3
  IC50: 150 to 1500 nM
MLLT1
  IC50: 150 to 1500 nM

## CN1CCCC1c1cn2cc(NC(=O)c3ccc(-c4cncs4)cc3F)ccc2n1 (single isomer, unassigned) [Example 8]
MLLT3
  IC50: 150 to 1500 nM
MLLT1
  IC50: 150 to 1500 nM

## CN1CCC[C@@H]1c1cn2cc(NC(=O)c3cc4cnn(C)c4cc3F)ncc2n1 [Example 101, 6-fluoro-1-methyl-N-[2-[(2R)-1-methylpyrrolidin-2-yl]imidazo[1,2-a]pyrazin-6-yl]indazole-5-carboxamide]
MLLT3
  IC50: 150 to 1500 nM
MLLT1
  IC50: < 150 nM

## Cc1nn(C)c2cc(C(=O)Nc3cn4cc(C5CC(C)(C)CN5C)nc4cn3)ccc12 (single isomer, unassigned) [Example 81]
MLLT3
  IC50: 1500 to 20000 nM
MLLT1
  IC50: 1500 to 20000 nM

## CN1CCCC1c1cn2cc(NC(=O)c3ccc4c(cnn4C)c3)ccc2n1 (single isomer, unassigned) [Example 59]
MLLT3
  IC50: 1500 to 20000 nM
MLLT1
  IC50: 1500 to 20000 nM

## CN1CCCC1c1cn2cc(NC(=O)c3ccc4cc(F)ccc4c3)ccc2n1 (single isomer, unassigned) [Example 6]
MLLT3
  IC50: 1500 to 20000 nM
MLLT1
  IC50: 1500 to 20000 nM
